Measured values published in PubChem BioAssay (NCI).
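All cell lines were grown in 96-well plates and treated with compound for 48 hours. At the GI50, growth is halved. TGI: concentration producing complete growth inhibition.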

Experiments:
Assay in all cases: inhibition of tumour cell growth, NCI panel, 48 h
[1] = system: HL-60(TB) leukemia
[2] = system: HOP-62 NSCLC
[3] = system: HOP-92 NSCLC
[4] = system: HS 578T breast
[5] = system: IGROV1 ovarian
[6] = system: LOX IMVI melanoma
[7] = system: MDA-MB-231 breast
[8] = system: MDA-MB-435
[9] = system: NCI-H522 lung
[10] = system: NCI/ADR-RES ovarian
[11] = system: OVCAR-3 ovarian
[12] = system: OVCAR-8 ovarian
[13] = system: SF-539 CNS
[14] = system: SK-MEL-5 melanoma
[15] = system: UACC-62 melanoma
[16] = system: HCT-116 colon
[17] = system: SF-268 CNS
[18] = system: UO-31 renal

O=c1c(-c2ccccc2)c(SCCCN2CCCCC2)n(-c2ccccc2)c(=S)n1-c1ccccc1
TGI [1]: 38.6 µM | TGI [2]: 32.7 µM | TGI [3]: 30.1 µM | TGI [4]: > 100 µM | TGI [5]: 35.7 µM | TGI [6]: 32.4 µM | TGI [7]: 27.9 µM | TGI [8]: 34.5 µM | TGI [9]: 41.1 µM | TGI [10]: 43.8 µM | TGI [11]: 34.3 µM | TGI [12]: 37.9 µM | TGI [13]: 30.4 µM | TGI [14]: 30.8 µM | TGI [15]: 30.1 µM

O=c1c2ccccc2nc2n1CCc1c-2[nH]c2ccccc12
TGI [16]: 31.3 µM | TGI [1]: > 100 µM | TGI [3]: 31 µM | GI50 [4]: 22.6 µM | TGI [4]: 50.5 µM | TGI [5]: 60.6 µM | TGI [10]: 61 µM | TGI [12]: 71.8 µM | TGI [17]: 75.2 µM | TGI [14]: 28.6 µM | TGI [18]: 28.1 µM

NCCCCNOCCCN
TGI [16]: > 100 µM | TGI [3]: > 100 µM | TGI [4]: > 100 µM | TGI [5]: > 100 µM | TGI [6]: > 100 µM | TGI [8]: > 100 µM | TGI [9]: > 100 µM | TGI [10]: > 100 µM | TGI [11]: > 100 µM | TGI [12]: > 100 µM | TGI [17]: > 100 µM | TGI [13]: > 100 µM | TGI [14]: > 100 µM | TGI [15]: > 100 µM | TGI [18]: > 100 µM

C=CCN1C(=O)NC(=O)/C(=C/c2c3ccccc3cc3ccccc23)C1=O
TGI [16]: 30.8 µM | TGI [2]: 33.2 µM | TGI [3]: 54.4 µM | TGI [5]: > 10 µM | TGI [6]: 75.4 µM | TGI [9]: 44.8 µM | TGI [11]: 42.3 µM | TGI [12]: 55 µM | TGI [17]: 60.8 µM | TGI [13]: 38.1 µM | TGI [14]: > 10 µM | TGI [15]: 50.4 µM | TGI [18]: 37 µM

CC(C)(CCCCC(C)(C)NC1=NCCO1)NC1=NCCO1
TGI [16]: > 10 µM | TGI [1]: > 10 µM | TGI [2]: > 10 µM | TGI [4]: > 10 µM | TGI [5]: > 10 µM | TGI [6]: > 10 µM | TGI [7]: > 10 µM | TGI [8]: > 10 µM | TGI [9]: > 10 µM | TGI [10]: > 10 µM | TGI [11]: > 10 µM | TGI [12]: > 10 µM | TGI [17]: > 10 µM | TGI [13]: > 10 µM | TGI [14]: > 10 µM | TGI [15]: > 10 µM | TGI [18]: > 10 µM

COC(=O)C1=C(O)C(C(=O)OC)[C@@]2(O)[C@@H](C(=O)OC)[C@H](C)C[C@@H]1[C@@H]2C(=O)OC (stereo partly drawn)
TGI [16]: > 100 µM | TGI [1]: 73.8 µM | TGI [2]: > 100 µM | TGI [4]: 54.1 µM | TGI [6]: > 100 µM | TGI [7]: 40.3 µM | TGI [8]: 32.1 µM | TGI [9]: 50.7 µM | TGI [11]: 40.2 µM | TGI [13]: 34.1 µM | TGI [15]: > 100 µM | TGI [18]: 67.6 µM
